Here are results for 1 compound from paper PMC3164524 (Biochemistry, 2011).

One may read the IC50 as the concentration that gives 50% inhibition. High values mean weaker potency in that assay, low ones greater potency in that assay.

SMILES strings stand for the structures. Square brackets hold non-standard residues; d marks the D form. Peptide text beside a SMILES is read from it. pY = N[C@@H](Cc1ccc(OP(=O)(O)O)cc1)C(=O)O

The target of the test is T1, SHP-2 N-SH2 domain (Homo sapiens, UniProt Q06124).
T1 sequence (Q06124 1-106): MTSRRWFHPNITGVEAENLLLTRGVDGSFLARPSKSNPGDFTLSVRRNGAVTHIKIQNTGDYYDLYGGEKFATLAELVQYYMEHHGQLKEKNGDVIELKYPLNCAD
Description: SPR competition assay against immobilized pYAQL peptide. The format is binding.

As for `CC(C)C[C@H](NC(=O)[C@H](CCC(N)=O)NC(=O)[C@H](C)NC(=O)[C@H](Cc1ccc(OP(=O)(O)O)cc1)NC(=O)[C@H](CC(N)=O)NC(=O)[C@H](CC(C)C)NC(=O)[C@@H](N)CCCNC(=N)N)C(=O)N[C@@H](Cc1c[nH]c2ccccc12)C(=O)N[C@@H](Cc1c[nH]cn1)C(=O)N[C@@H](CCCNC(=N)N)C(N)=O` [pYAQL] (H-RLN[pY]AQLWHR-NH2), the IC50 was determined as 600 ± 100 nM.
